This note sets out measurements from patent publication US20100015249A1, “Antitumor agent containing 6'-amidino-2'-naphthyl 4-guanidinobenzoate or salt thereof” (priority 2005, published 2010).

Assay [1] concerns human pancreas cancer cell line MDAPanc-28. The assay is described as follows: MTT assay of cell survival rate / living cell ratio. In kind it is cell-based. On the procedure:
The present inventors examined the concomitant effect of FUT and TNF-α on apoptosis in cancer cells. After treatment with TNF-α for 24 hours, the human pancreas cancer cell line MDAPanc-28 was further cultured for 24 hours with various concentrations of FUT being added. Cells prepared were then subjected to an MTT assay according to the method generally known to calculate the cell survival rates. Also, DNA was extracted to perform a DNA fragmentation assay.
More specifically, with regard to the MTT assay, each well was seeded with 2000 cells per 100 μl of culture medium in a 96-well microtiterplate, followed by the above mentioned treatment. After plate centrifugation, each well received 5 mg/ml of MTT (Sigma) PBS solution instead of culture medium and was incubated for 4 hours at 37° C. After removing the supernatant, 100 μl of DMSO were added to dissolve the cells. The absorbance of the samples was measured at 570 nm by using a microplate reader. 8 wells were subjected to the same condition in this experiment. Two independent experiments were performed, and the average was calculated.
However, the agents are of different types with different mechanisms of action. Therefore, the present inventors examined the effect of each agent on the living cell ratio in the human pancreas cancer cell line MDAPanc-28 singularly. After being treated with each agent for 24 hours and 48 hours, the human pancreas cancer cell line MDAPanc-28 was subjected to a MTT assay. The MTT assay was performed by the method described in Example 9.

The test system of another assay is TNFRI. Nature of the assay: TNFRI expression by Northern blot and Western blot. Format: cell-based, human. The protocol:
A cDNA probe for hybridization was constructed by the following method. After FUT treatment, RNA was extracted from the human pancreas cancer cell line […]-28 by using TRIZOL Reagent (Life Technologies, Inc.) 15 μg of RNA was subjected to electrophoresis on a 1% denatured formaldehyde agarose gel and transferred to a nylon membrane. RT-PCR was performed in order to construct a cDNA probe to be used for the detection of TNFRI mRNA. With this RT-PCR, primers represented by SEQ ID Nos: 5 and 6 were used. The obtained cDNA was inserted into the pCR2.1-TOPO vector. […] The obtained cDNA probe was labeled with α-^32P dCTP by using the random labeling kit (Roche) and used for hybridization. The expression of TNFRI mRNA was confirmed by Northern blot method with the above mentioned probe according to the method generally known. […] Also, TNFRI expression on the cell surface was detected by Western blot method. More specifically, the experiment was performed by the method similar to the method described in Example 2. Mouse monoclonal anti-TNFR1 (H-5; Santa Cruz Biotechnology) was used for detection.

The subject of assay [2] is human pancreas cancer cell line MDAPanc-28. The assay is described as follows: Matrigel infiltration assay. The settings on record: MDAPanc-28 pretreated with 80 μg/ml FUT for 24 hours, 22-hour incubation in matrigel-coated chamber. In kind it is cell-based. The protocol: A matrigel infiltration assay was performed to examine an inhibitory effect on infiltration in the human pancreas cancer cell line MDAPanc-28 by FUT treatment. Cells treated with 80 μg/ml of FUT for 24 hours and untreated cells were respectively inoculated to a matrigel-coated chamber at a concentration of 20000 cells per well for a 22-hour incubation at 37° C. either in the presence or absence of 80 μg/ml of FUT. The numbers of infiltrated cells were then counted under the microscope after Wright-Giemsa staining according to the method generally known.

The next assay relates to IκBα. The assay is described as follows: Western blot of IκBα / phosphorylated IκBα in cytoplasm extracts. Format: cell-based, human. On the procedure: The human pancreas cancer cell line MDAPanc-28 was treated with various concentrations of FUT to examine the effect on IκBα. Cytoplasm extracts were extracted from cells treated with various concentrations of FUT according to the method generally known and Western blot was performed to detect each protein. More specifically, each lane was loaded with 50 μg of protein to perform electrophoresis. The gel was then transferred to a PVDF membrane (Osmonics). After blocking with PBS containing 5% nonfat milk for 2 hours at room temperature, primary antibody (anti-IκBα antibody) diluted with PBS containing 0.1% nonfat milk was added for reaction at 4° C. overnight. After rinsing with PBS, the PVDF membrane was then reacted with secondary antibody solution diluted with PBS containing 0.1% nonfat milk for 2 hours at room temperature. Proteins were detected by using Lumi-Light Western Blotting Substrate.

The next assay has as its system MMP-9. The assay is described as follows: Western blot of MMP-9 expression. Format: cell-based, human. The following applies: MDAPanc-28 cytoplasmic fraction, 0 or 80 μg/ml FUT. On the procedure:
Cytoplasmic fraction was prepared from the human pancreas cancer cell line […]-28 treated with either 0 μg/ml or 80 μg/ml of FUT. Western blot was performed for the obtained cytoplasmic proteins to examine MMP-2 and MMP-9 expression. More specifically, the experiment was performed by the method described in Example 2. Rabbit polyclonal anti-MMP-2 antibody, goat polyclonal anti-MMP-9 antibody and mouse anti-B-actin antibody (Santa Cruz Biotechnology, Inc.) were used for detection.

In assay [3] the test system is human pancreas cancer cell line MDAPanc-28. Nature of the assay: Apoptosis ratio by flow cytometry (propidium iodide, FACScan). Format: cell-based. The settings on record: MDAPanc-28, pretreatment with the agent 3 hours then gemcitabine 48 hours, compared with gemcitabine alone. The protocol:
The present inventors next examined the effect of these agents on apoptosis induction in the human pancreas cancer cell line MDAPanc-28. […] Flow cytometry was used to confirm the occurrence of apoptosis. Cells were collected after treatments with the agents and fixed in 70% ethanol at −20° C. for 24 hours. After rinsing with PBS, cells were suspended in PBS containing 50 μg/ml of propium iodide, 0.1% Triton X-100, 0.1% sodium citrate and 1 μg/ml of DNase free RNase. The samples were incubated at room temperature for 30 minutes and the amount of DNA was measured by using FACScan.

In the case of `N=C(N)c1ccc2cc(OC(=O)c3ccc(N=C(N)N)cc3)ccc2c1` [FUT, 6-amidino-2-naphthyl p-guanidinobenzoate dimethanesulfonate], the cell survival rate entry in assay [1] (MDAPanc-28, TNF-α 24 hours then various concentrations of FUT 24 hours, MTT, compared with control cells) is “significantly declined”. Further, in assay [1] (MDAPanc-28, comparison of FUT with PS1145), the “speed of inhibitory effect on proliferation” value was “more rapid inhibitory effect than PS1145”. For the same compound, in assay [1] (MDAPanc-28, single agent, 24 hours and 48 hours, MTT), the “cell proliferation / living cell ratio” value is reported as “inhibited in a FUT concentration-dependent manner”. Moreover, in assay [1] (MDAPanc-28, single agent, MTT), the “living cell ratio at 48 hours compared to 24 hours” value is listed as “slightly increased at 48 hours compared to the ratio at 24 hours”. In the assay with TNFRI (MDAPanc-28, Northern blot), the “level of TNFRI mRNA expression” value is given as “increased in a FUT concentration-dependent manner”. The “TNFRI expression on the cell surface” value with TNFRI (MDAPanc-28, Western blot) is given as “increased TNFRI expression on the cell surface”. For the same compound, the “infiltration (number of infiltrated cells)” value in assay [2] was “significant inhibitory effect on infiltration”. For the same compound, the “level of phosphorylated IκBα in the cytoplasm” value in the assay with IκBα (MDAPanc-28, over time after adding FUT) is on record as “declines overtime”. Besides, the “level of IκBα in the cytoplasm over time” value with IκBα (MDAPanc-28, time after addition of FUT up to 48 hours) is “increases along the progression of NF-κB inactivation up to 24 hours after addition of FUT and then is restored to a steady-state level after 48 hours”. Further, the “level of IκBα in the cytoplasm” value in the assay on IκBα (MDAPanc-28, various concentrations of FUT) is given as “increased by FUT in a concentration-dependent manner”. In addition, the MMP-9 expression entry with MMP-9 was “inhibited by FUT in a concentration-dependent manner”. For the same compound, in assay [3], the “apoptosis induction in combination with gemcitabine” value is “further enhanced the effect on apoptosis induction”.
